# Test results: paper PMC12383972, “Oral Pharmacokinetic Evaluation of a Microemulsion-Based Delivery System for Novel A190 Prodrugs” (Biomolecules, 2025)
# Read-outs that look alike come from different tables or passages of the source.
# Legend:
# [1] = design: method as in PMID 32582345; details: preclinical assessment; cited from earlier work
# Caco-2 cells [2] = tested on: Caco-2 cells; design: method as in PMID 39879378; details: Caco-2, in 0.2% DMSO, 24 h and 48 h; cited from earlier work
# HepG2 cells [3] = tested on: HepG2 cells; design: method as in PMID 39879378; details: HepG2, in 0.2% DMSO, 24 h and 48 h; cited from earlier work
# CYP450 = tested on: CYP450; design: method as in PMID 32582345; details: preclinical assessment; cited from earlier work
# PPARα = tested on: PPARα; design: method as in PMID 32096640, PMID 39961437; details: cited from earlier work
# [4] = design: method as in PMID 39879378; details: PAMPA, cited from earlier work
# hERG = tested on: hERG; design: method as in PMID 32582345; details: preclinical assessment; cited from earlier work
# [5] = Chemical hydrolysis stability in PBS pH 7.4; type: physicochemical; details: PBS pH 7.4, 37 °C, 100 μM
# Experimental: Chemical hydrolysis stability of each prodrug was assessed in a physiological pH 7.4 using phosphate buffered saline solution (PBS) as previously described. After preincubation of PBS solution at 37 °C for 5 min, stock solution of each prodrug (10 mM) was spiked to a final concentration of 100 μM. The samples were then incubated at 37 °C on a temperature-controlled orbital shaker operating at 200 rpm. At predetermined time points, 200 μL of incubation mixture was withdrawn and quenched with 100 μL of internal standard (0.5 μg/mL of fenofibric acid) and 700 μL ice cold ACN. Drug concentration was analyzed using HPLC-UV method as described earlier to assess the amount of prodrug recovered compared to the starting timepoint.
# [6] = Bioconversion of prodrugs in rabbit plasma; type: in vitro ADME; details: 37 °C; for half-life at 100 μM / Prodrug bioconversion half-life (Rabbit plasma): 100 μM prodrug; for half-life at 100 μM: pooled rabbit plasma; for Prodrug bioconversion half-life (Rabbit plasma): Figure 3E
# Experimental: (§1) Conversion of the respective prodrugs to the parent drug A190 was assessed in pooled rat and rabbit plasma. Following pre-incubation of plasma at 37 °C for 5 min, stock solution of each prodrug (10 mM) was spiked into the plasma to reach a final concentration of 100 μM. The mixture was incubated at 37 °C, 200 rpm on a temperature-controlled orbital shaker. Incubation mixture (200 μL) was withdrawn at pre-determined time points, and the reaction was terminated by the addition of 700 μL of ice cold ACN. 100 μL of internal standard (0.5 μg/mL of fenofibric acid) was then spiked, and the samples were vortexed and centrifuged at 10,000× g for 10 min. The resulting supernatants were collected and filtered using PTFE filters and injected into HPLC-UV system. The LC system was a reverse phased Shimadzu Prominence (Kyoto, Japan) using a Pursuit 5 C18 column. Isocratic separation was performed with mobile phase consisting of ACN/water (80/20 v/v) containing 0.1% trifluoroacetic acid and monitored at a UV detection of 227 nm.
# [7] = Bioconversion of prodrugs in rat plasma; type: in vitro ADME; details: 37 °C; for half-life at 100 μM / Prodrug bioconversion half-life (Rat plasma): 100 μM prodrug; for half-life at 100 μM: pooled rat plasma; for Prodrug bioconversion half-life (Rat plasma): Figure 3E
# Experimental: as §1
# [8] = BCS classification from solubility and PAMPA permeability; details: predicted from low solubility and low permeability
# [9] = Parallel artificial membrane permeability assay (PAMPA); type: in vitro ADME; details: PBS pH 6.8, 200 µg/mL donor, 5 h, room temperature
# Experimental: Parallel artificial membrane permeability assay (PAMPA) is a widely used screening method to predict the passive intestinal permeability using a phospholipid coated lipophilic membrane which simulates the properties of the intestinal wall. The in vitro intestinal membrane permeability of free A190-PD-60 (dispersed in PBS pH 6.8), A190-PD-60 dispersion (dispersed in a mixture of 1:1 v/v methylcellulose/Tween 80), and A190-PD-60-ME were evaluated using a PAMPA plate (BD BioSciences, San Jose, CA, USA), as described previously. The samples for donor chamber were prepared by diluting free A190-PD-60, A190-PD-60 dispersion, and A190-PD-60-ME with PBS pH 6.8 to a final concentration of 200 µg/mL. […] The concentration of A190-PD-60 which permeated into the acceptor chamber was measured using a HPLC-UV system. The effective permeability coefficient (Pe) was then calculated using the following equation:Pe = −ln(1 − CA[t]/Cequilibrium)/(A × [1/VD + 1/VA] × t)(1) where Pe is the permeability (cm/s), A is the effective filter area (0.228 cm^2), VD is the volume of the donor well (0.2 mL), VA is the volume of the receptor well (0.3 mL), t is the total time of incubation in seconds, CA(t) denotes the concentration of drug in the receptor well at time t, and Cequilibrium represents (CD[t] × VD + CA[t] × VA)/(VD + VA), where CD(t) denotes the concentration of drug in the donor well at time t.
# Caco-2 cells [10] = assay: MTT cell viability assay, Caco-2; type: cell-based, human; details: Caco-2, 50 µM, 24 h and 48 h
# Experimental: (§2) To evaluate the cytotoxicity of free A190-PD-60 (in 0.2% DMSO in DMEM), vehicle microemulsion, and A190-PD-60-ME against Caco-2 cells and HepG2 cells, an MTT assay using 3-(4,5-dimethylthiazol-2-yl)-2,5-diphenyltetrazolium bromide was performed as described before. Caco-2 and HepG2 cells were first cultured in DMEM supplemented with 10% FBS, penicillin (100 U/mL), and streptomycin (100 μg/mL) at 37 °C in a 5% CO2 humidified incubator. Upon reaching confluence, cells were trypsinized and seeded at 10 × 10^4 cells/well in 96-well plates. After 48 h, the medium was replaced with fresh dilutions of free A190-PD-60, vehicle microemulsion, or A190-PD-60-ME (0.1–50 µM) in DMEM. Controls included untreated cells and cells treated with 0.2% DMSO in DMEM. Following 24 h and 48 h incubation, the medium was replaced with 100 µL of MTT solution (5 mg/mL in PBS) and incubated for 3 h. The supernatant was then removed, and formazan crystals were dissolved in 100 µL DMSO. Absorbance was measured at 540 nm, and cell viability (%) was calculated as (OD of samples/OD of control) × 100.
# [11] = Solubility in microemulsion excipients; type: physicochemical; details: for solubility at 72 h: thermodynamic from solid, 25 °C
# Experimental: Enhancement of drug solubility is the primary factor considered when evaluating ME components. To determine the solubility of A190-PD-60, an excess amount of A190-PD-60 was added to 1 g of each of the tested oils, surfactants and co-surfactants in glass vials with stoppers. A190-PD-60 and excipients were mixed together and vortexed. The mixtures were kept at a temperature of 25 ± 1.0 °C in an isothermal shaker for 72 h to achieve equilibrium. The mixtures were then centrifuged at 10,000× g for 15 min. The resulting supernatants were filtered using […] membrane filters and concentrations of A190-PD-60 in the filtrates were quantified via HPLC-UV analysis. Oils, emulsifiers, and co-emulsifiers with the highest solubilities were chosen for further miscibility analysis. For this, 2 mL of the selected excipients were mixed and vortexed for 10 min, then allowed to equilibrate for 1 h. The resulting mixtures were visually inspected for transparency and phase separation.
# HepG2 cells [12] = assay: MTT cell viability assay, HepG2; type: cell-based, human; details: HepG2, 50 µM, 24 h and 48 h
# Experimental: as §2
# Aqueous solubility = type: physicochemical; details: thermodynamic from solid; deionized water, 25 °C, 48 h equilibrium
# Experimental: Aqueous solubility of each prodrug was assessed using deionized water. In brief, an excess amount of each prodrug was placed in a stoppered vial containing 1 mL of water. Each sample was vortexed and kept in an isothermal shaker maintained at 25 ± 1.0 °C to reach equilibrium for 48 h. The resulting mixture was centrifuged at 4000× g for 15 min, and the supernatant was collected and diluted with ACN followed by filtration with a 0.22 μm filter. The drug concentrations for all prodrugs were measured using HPLC-UV. Chromatographic separation was achieved using an Agilent Pursuit XRs 5 C18 column (250 × 4.6 mm) with a UV-detector system. The mobile phase consisted of ACN and water, both containing 0.1% trifluoroacetic acid in a ratio of 80:20 v/v, with a flow rate of 1 mL/min at 25 °C.
structure (smiles),measurement,setting,value
"Cc1cc(CNc2cccc(C(=O)O)c2)ccc1OCc1ccc(F)cc1 [A190, 3-((4-((4-fluorobenzyl)oxy)-3-methylbenzyl)amino)benzoic acid]",microsomal metabolic stability,[1],acceptable
same,concentration up to which safe,Caco-2 cells [2],< 50 µM
same,concentration up to which safe,HepG2 cells [3],< 50 µM
same,CYP450 liability,CYP450,absence
same,subtype selectivity,PPARα; PPAR-α over γ/δ isoforms,> 2700 fold
same,EC50,PPARα; PPARα agonism,< 40 nM
same,"effective permeability (Pe), dispersion form",[4]; dispersion form,0.13 ± 0.04 × 10^−6 cm/s
same,"effective permeability (Pe), A190 in PBS",[4]; in PBS,0.09 ± 0.02 × 10^−6 cm/s
same,hERG-related cardiotoxicity,hERG,absence
"COC(=O)c1cccc(NCc2ccc(OCc3ccc(F)cc3)c(C)c2)c1 [A190-PD-9, Methyl 3-((4-((4-Fluorobenzyl)oxy)-3-Methylbenzyl)amino)benzoate]",drug remaining at 2 h,[5],about 40%
same,half-life at 100 μM,[6],432 min
same,original concentration retained after 120 min in rabbit plasma,"[6]; 100 μM, 120 min",≥ 80%
same,Prodrug bioconversion half-life (Rabbit plasma),[6],7.2 h
same,half-life at 100 μM,[7],576 min
same,original concentration retained after 120 min in rat plasma,"[7]; 100 μM, 120 min",≥ 80%
same,Prodrug bioconversion half-life (Rat plasma),[7],9.6 h
"CCOC(=O)c1cccc(NCc2ccc(OCc3ccc(F)cc3)c(C)c2)c1 [A190-PD-14, Ethyl 3-((4-((4-Fluorobenzyl)oxy)-3-Methylbenzyl)amino)benzoate]",drug remaining at 2 h,[5],10%
same,half-life at 100 μM,[6],492 min
same,Prodrug bioconversion half-life (Rabbit plasma),[6],8.2 h
same,half-life at 100 μM,[7],156 min
same,Prodrug bioconversion half-life (Rat plasma),[7],2.6 h
"Cc1cc(CNc2cccc(C(=O)OCc3oc(=O)oc3C)c2)ccc1OCc1ccc(F)cc1 [A190-PD-60, (5-Methyl-2-oxo-1,3-dioxol-4-yl)methyl3-((4-((4-Fluorobenzyl)oxy)-3-methylbenzyl)amino)benzoate]",drug remaining at 2 h,[5],over 80%
same,half-life at 100 μM,[6],30 min
same,Prodrug bioconversion half-life (Rabbit plasma),[6],0.5 h
same,BCS class,[8],BCS Class IV
same,Effective Permeability Across Artificial Membrane (Pe),[9],"< 0.1 ×10^−6, cm/s"
same,Effective Permeability Across Artificial Membrane (Pe),[9]; listed as A190-PD-60 in PBS,BLD
same,cytotoxicity at highest tested concentration,Caco-2 cells [10],no significant cytotoxicity
same,solubility in Capryol 90 relative to Maisine oil,[11],13.9 fold
same,solubility in Capryol 90 relative to oleic acid,[11],4.8 fold
same,solubility at 72 h,"[11]; Capryol 90, oil or lipid, read-out: Solubility in Capryol 90",4450 ± 310 µg/mL
same,solubility at 72 h,"[11]; Cremophor EL, organic solvent or mixture, read-out: Solubility in Cremophor EL",9050 ± 40 µg/mL
same,solubility at 72 h,"[11]; Labrafil M, oil or lipid, read-out: Solubility in Labrafil M",6580 ± 190 µg/mL
same,solubility at 72 h,"[11]; Lauroglycol FCC, oil or lipid, read-out: Solubility in Lauroglycol FCC",4590 ± 50 µg/mL
same,solubility at 72 h,"[11]; Maisine oil, oil or lipid, read-out: Solubility in Maisine oil",320 ± 300 µg/mL
same,solubility at 72 h,"[11]; Oleic acid, oil or lipid, read-out: Solubility in Oleic acid",920 ± 40 µg/mL
same,solubility at 72 h,"[11]; Peceol, oil or lipid, read-out: Solubility in Peceol",2170 ± 70 µg/mL
same,solubility at 72 h,"[11]; Polypropylene glycol, organic solvent or mixture, read-out: Solubility in Polypropylene glycol",3790 ± 620 µg/mL
same,solubility at 72 h,"[11]; Transcutol HP, organic solvent or mixture, read-out: Solubility in Transcutol HP",14100 ± 140 µg/mL
same,solubility at 72 h,"[11]; Tween 80, organic solvent or mixture, read-out: Solubility in Tween 80",9170 ± 70 µg/mL
same,half-life at 100 μM,[7],18 min
same,Prodrug bioconversion half-life (Rat plasma),[7],0.3 h
same,cytotoxicity at highest tested concentration,HepG2 cells [12],no significant cytotoxicity
same,solubility at 48 h,Aqueous solubility,1.4 ± 0.23 µg/mL
"Cc1cc(CNc2cccc(C(=O)OC(C)C)c2)ccc1OCc1ccc(F)cc1 [A190-PD-154, Isopropyl 3-((4-((4-Fluorobenzyl)oxy)-3-Methylbenzyl)amino)benzoate]",drug remaining at 2 h,[5],10%
same,half-life at 100 μM,[6],84 min
same,Prodrug bioconversion half-life (Rabbit plasma),[6],1.4 h
same,half-life at 100 μM,[7],408 min
same,Prodrug bioconversion half-life (Rat plasma),[7],6.8 h
